A short description of this data set: Pharmacokinetic study of nanoparticle suspension NS-I-4 in ICR mice. The class given is in vivo. The note with it: for MRT last: read-out: MRT(0-t); for MRT inf: read-out: MRT(0-∞); for Vd: read-out: Vz. How it is done:
Nanoparticle suspension NS-I-4, prepared according to the method as described in example 5, was administered intravenously into ICR mice at a dosage of 30 mg/kg. At different time points (5 min, 10 min, 30 min, 1 h, 2 h, 3 h, 4 h, 6 h) after the drug injection, blood samples were withdrawn from the dosed mice, and then were centrifuged at 6,000 rpm for 10 minutes at 4° C. The supernatant plasma samples were fetched and treated with 9 times volume of acetonitrile containing 0.5% trifluoromethane sulfonic acid. The treated plasmas were centrifuged at 12,000 rpm for 15 minutes at 4° C., and then the supernatants were fetched and analyzed with HPLC.
During treatment of blood samples before HPLC analysis, active drug 2-acetyl-4,9-dihydroxy-naphtho[2,3-b]furan and active metabolite 2-(1-hydroxyl)ethyl-4,9-dihydroxy-naphtho[2,3-b]furan are both oxidized into 2-acetyl-naphtho[2,3-b]furan-4,9-dione and 2-(1-hydroxyl)ethyl-naphtho[2,3-b]furan-4,9-dione, respectively (see scheme 1).
Scheme 1: Compound I is degraded by esterases into active drug, which is further metabolized into active metabolite. During pre-treatment for HPLC analysis, active drug and metabolite are oxidized by oxygen from air to oxidized drug and oxidized metabolite, respectively.
The Waters HPLC system used in this study includes: 1525 dual pump, 2998 photodiode array detector, 2707 auto sampler, Breeze 2 control and analysis software. The HPLC column used in this study: Phenomenex Luna C18, 250×4.60 mm 5 micron. The HPLC mobile phase: buffer A, 80% water, 20% acetonitrile; buffer B, 10% water, 70% acetonitrile, 20% tetrahydrofuran. The HPLC mobile phase gradient: 0-3 min, 50% buffer B to 50% buffer B, 3-10 min, 50% buffer B to 100% buffer B, 10-20 min, 100% buffer B to 100% buffer B, 20-22 min, 100% buffer B−50% buffer B, 22-25 min, 50% buffer B to 50% buffer B; flow rate, 1 ml/min.
Time courses of compound I, oxidized drug and oxidized active metabolite are illustrated in FIG. 2.

Setting [1] is: analyte in mouse plasma after NS-I-4 intravenously 30 mg/kg, ICR mice.
The mark [2] stands for this setting: iv, analyte in mouse plasma after NS-I-4 intravenously 30 mg/kg, ICR mice.
Where [3] appears, read: iv, analyte in mouse plasma after NS-I-4 intravenously 30 mg/kg, ICR mice, read-out: AUC(0-t).
Setting [4] is: iv, analyte in mouse plasma after NS-I-4 intravenously 30 mg/kg, ICR mice, read-out: Cmax.
Where [5] appears, read: iv, analyte in mouse plasma after NS-I-4 intravenously 30 mg/kg, ICR mice, read-out: Tmax.

Read-outs that look alike come from different tables or passages of the source.

For `CC(O)c1cc2c(o1)C(=O)c1ccccc1C2=O` (stereo not shown) [2-(1-hydroxy)ethyl-naphtho[2,3-b]furan-4,9-dione], under setting [1], the AUC(0-t) (as a rule, the area under the concentration-time curve up to a stated or last time point) was 3801 ng·h/mL; the “AUC(0-∞)” value was 3999 ng·h/mL; the CLz came out at 250.07 mL/min/kg; the Cmax (as a rule, the peak of the concentration-time curve) was determined as 1695 ng/mL. In addition, under setting [1], the “MRT(0-t)” value amounted to 86.28 min; the “MRT(0-∞)” value was determined as 97.68 min; the Tmax – broadly, the time at which the peak concentration occurs – came out at 30 min; the Vz (commonly the apparent volume that relates the amount in the body to the concentration in plasma or blood) came out at 19.051 L/kg. For the same compound, under setting [1], the t1/2z was determined as 52.8 min.

Under setting [1], `CC(=O)c1cc2c(o1)C(=O)c1ccccc1C2=O` [2-acetyl-naphtho[2,3-b]furan-4,9-dione] displayed a CLz of 58.62 mL/min/kg and a t1/2z of 184.4 min. Further, under setting [2], the AUC(0-inf) (commonly total exposure, with the tail of the curve extrapolated) was determined as 8530 ng·h/mL; the MRT last was 74.9 min; the MRT inf was 147 min; the Vd was found to be 15.6 L/kg. Besides, the AUC(0-t) under setting [3] was found to be 7420 ng·h/mL. For the same compound, under setting [4], the Cmax stood at 6130 ng/mL. The Tmax under setting [5] was found to be 10 min.

As to `CCCCCCCC(=O)Oc1c2ccccc2c(OC(=O)CCCCCCC)c2oc(C(C)=O)cc12` [Compound I, 2-acetyl-4,9-bis(octanoyloxy)-naphtho[2,3-b]furan], for the setting “administered intravenously into ICR mice”, the metabolic fate entry was “degraded by esterases into active drug 2-acetyl-4,9-dihydroxy-naphtho[2,3-b]furan”. Under setting [1], the CLz worked out at 1.97 mL/min/kg and the t1/2z was 23.8 min. Moreover, under setting [2], the AUC(0-inf) turned out to be 255000 ng·h/mL, the MRT last came out at 37.7 min, the MRT inf is 37.7 min and the Vd was 0.067 L/kg. Under setting [3], the AUC(0-t) came to 255000 ng·h/mL. Under setting [4], the Cmax was 288000 ng/mL. Besides, the Tmax under setting [5] is 10 min.

Values taken from patent publication US20150164794A1, “METHOD FOR PREPARING AQUEOUS NANOPARTICLE SUSPENSIONS OF DERIVATIVES OF 4,9-DIHYDROXY-NAPHTHO[2,3-b]FURAN ALIPHATIC ACID ESTERS” (Zhoushan Haizhongzhou Xinsheng Pharmaceuticals, Co., Ltd., priority 2012, published 2015).
